What all share (type): functional
In experiment [1] the test system is Enterococcus faecalis. As to the kind of experiment: Antibacterial activity against Enterococcus faecalis ATCC 14506.
The test system of experiment [2] is Staphylococcus aureus. As to the kind of experiment: Antibacterial activity against methicillin-resistant Staphylococcus aureus ATCC 700699.
Experiment [3] has as its system Staphylococcus aureus. As to the kind of experiment: Antibacterial activity against Staphylococcus aureus ATCC 9144.
The next experiment deals with Streptococcus pyogenes. As to the kind of experiment: Antibacterial activity against Streptococcus pyogenes ATCC 14289.
The test system of experiment [4] is Staphylococcus epidermidis. As to the kind of experiment: Antibacterial activity against Staphylococcus epidermidis ATCC 155.
Experiment [5] deals with Staphylococcus aureus. As to the kind of experiment: Antibacterial activity against Staphylococcus aureus ATCC 25923.
Experiment [6] deals with Staphylococcus aureus. As to the kind of experiment: Antibacterial activity against linezolid-resistant Staphylococcus aureus NRS 119.
The subject of another experiment is Bacillus pumilus. As to the kind of experiment: Antibacterial activity against Bacillus pumilus ATCC 14348.
The test system of a further experiment is Streptococcus pneumoniae. As to the kind of experiment: Antibacterial activity against penicillin-resistant Streptococcus pneumoniae ATCC 700904.
The subject of experiment [7] is Staphylococcus aureus. As to the kind of experiment: Antibacterial activity against Staphylococcus aureus ATCC 14154.
The test system of experiment [8] is Staphylococcus aureus. As to the kind of experiment: Antibacterial activity against Staphylococcus aureus ATCC 29213.
In experiment [9] the test system is Enterococcus faecalis. As to the kind of experiment: Antibacterial activity against Enterococcus faecalis ATCC 35550.
Experiment [10] deals with Enterococcus faecalis. As to the kind of experiment: Antibacterial activity against vancomycin-resistant Enterococcus faecalis ATCC 700802.

The values below come from ChEMBL document CHEMBL1139670, “Novel 4-N-substituted aryl pent-2-ene-1,4-dione derivatives of piperazinyloxazolidinones as antibacterials” (2006).

Broadly, the MIC is the lowest concentration that inhibits growth of the organism.

Values after ≈ are worked out from the molar mass of the structure shown. Active and inactive are the calls of the source. The rule behind the calls is not given here. Some results are limits rather than exact numbers.

Consider `CC(=O)NC[C@H]1CN(c2ccc(N3CCN(C(=O)/C=C/C(=O)c4ccc(NC(C)=O)cc4)CC3)c(F)c2)C(=O)O1`, for which the MIC in the experiment on Enterococcus faecalis [1] is 1 µg/mL (≈ 1.81 µM); with Staphylococcus aureus [2], 1 µg/mL (≈ 1.81 µM); against Staphylococcus aureus [3], at most 0.12 µg/mL; in the experiment on Streptococcus pyogenes, at most 0.12 µg/mL; in experiment [4], at most 0.12 µg/mL; in the experiment on Staphylococcus aureus [5] it was 0.5 µg/mL (≈ 0.906 µM). For the same compound, the MIC was over 16 µg/mL with Staphylococcus aureus [6]; 0.5 µg/mL (≈ 0.906 µM) with Bacillus pumilus; at most 0.12 µg/mL in the experiment with Staphylococcus aureus [7]; at most 0.12 µg/mL with Staphylococcus aureus [8]; 0.25 µg/mL (≈ 0.453 µM) in the experiment with Enterococcus faecalis [9]. Besides, the MIC result in the experiment with Streptococcus pneumoniae is “inactive”.

With `CC(=O)NC[C@H]1CN(c2ccc(N3CCN(C(=O)/C=C/C(=O)[O-])CC3)c(F)c2)C(=O)O1.[Na+]`, the minimum inhibitory concentration (MIC) (in experiment [4]; in the experiment with Staphylococcus aureus [5]; in the experiment on Bacillus pumilus; with Enterococcus faecalis [9]) was over 16 µg/mL in each case.

With `CC(=O)NC[C@H]1CN(c2ccc(N3CCOCC3)c(F)c2)C(=O)O1` [LINEZOLID], the MIC in the experiment on Staphylococcus aureus [2] was 1 µg/mL (≈ 2.96 µM); in the experiment with Streptococcus pyogenes, 0.25 µg/mL (≈ 0.741 µM); in [4], 1 µg/mL (≈ 2.96 µM); in the experiment on Staphylococcus aureus [5], 1 µg/mL (≈ 2.96 µM); in the experiment on Staphylococcus aureus [6], over 16 µg/mL; against Bacillus pumilus, 2 µg/mL (≈ 5.93 µM). For the same compound, the MIC with Streptococcus pneumoniae came out at 0.25 µg/mL (≈ 0.741 µM).

Take `CC(=O)NC[C@H]1CN(c2ccc(N3CCN(C(=O)CO)CC3)c(F)c2)C(=O)O1` [EPEREZOLID]: the MIC was 1 µg/mL (≈ 2.54 µM) against Enterococcus faecalis [1]; 1 µg/mL (≈ 2.54 µM) against Staphylococcus aureus [2]; 2 µg/mL (≈ 5.07 µM) with Staphylococcus aureus [3]; 0.5 µg/mL (≈ 1.27 µM) against Streptococcus pyogenes; 2 µg/mL (≈ 5.07 µM) against Staphylococcus aureus [5]; over 16 µg/mL against Staphylococcus aureus [6]. Besides, the MIC against Bacillus pumilus worked out at 1 µg/mL (≈ 2.54 µM); against Streptococcus pneumoniae, 0.5 µg/mL (≈ 1.27 µM); in the experiment with Staphylococcus aureus [7], 2 µg/mL (≈ 5.07 µM); in the experiment on Staphylococcus aureus [8] it was 2 µg/mL (≈ 5.07 µM); against Enterococcus faecalis [9], 2 µg/mL (≈ 5.07 µM); against Enterococcus faecalis [10] it was 1 µg/mL (≈ 2.54 µM).

For the compound `CC(=O)NC[C@H]1CN(c2ccc(N3CCN(C(=O)/C=C/C(=O)c4ccccc4)CC3)c(F)c2)C(=O)O1`, the MIC in the experiment on Enterococcus faecalis [1] is 2 µg/mL (≈ 4.04 µM); against Staphylococcus aureus [2] it was at most 0.12 µg/mL; with Staphylococcus aureus [3], at most 0.12 µg/mL; in the experiment with Streptococcus pyogenes it was 0.25 µg/mL (≈ 0.506 µM); in [4], 0.12 µg/mL (≈ 0.243 µM); in the experiment with Staphylococcus aureus [5], at most 0.12 µg/mL. In addition, the MIC in the experiment with Staphylococcus aureus [6] was 4 µg/mL (≈ 8.09 µM); in the experiment on Bacillus pumilus, 1 µg/mL (≈ 2.02 µM); in the experiment with Streptococcus pneumoniae, at most 0.12 µg/mL; in the experiment on Staphylococcus aureus [7] it was at most 0.12 µg/mL; with Staphylococcus aureus [8] it was 0.25 µg/mL (≈ 0.506 µM); in the experiment with Enterococcus faecalis [9] it was 0.5 µg/mL (≈ 1.01 µM). The compound also had an MIC in the experiment with Enterococcus faecalis [10] of 2 µg/mL (≈ 4.04 µM).

For the compound `CC(=O)NC[C@H]1CN(c2ccc(N3CCN(C(=O)/C=C/C(=O)c4ccc(Br)cc4)CC3)c(F)c2)C(=O)O1`, the MIC is 2 µg/mL (≈ 3.49 µM) against Enterococcus faecalis [1]; 4 µg/mL (≈ 6.98 µM) in the experiment on Staphylococcus aureus [2]; 4 µg/mL (≈ 6.98 µM) against Staphylococcus aureus [3]; 0.25 µg/mL (≈ 0.436 µM) in [4]; at most 0.12 µg/mL with Staphylococcus aureus [5]; over 16 µg/mL against Staphylococcus aureus [6]. The MIC in the experiment with Bacillus pumilus is 0.12 µg/mL (≈ 0.209 µM); in the experiment on Streptococcus pneumoniae it was 2 µg/mL (≈ 3.49 µM); in the experiment on Staphylococcus aureus [7], 2 µg/mL (≈ 3.49 µM); against Staphylococcus aureus [8], 4 µg/mL (≈ 6.98 µM); against Enterococcus faecalis [9], 2 µg/mL (≈ 3.49 µM); against Enterococcus faecalis [10], over 16 µg/mL.

Turning to `COc1ccc(C(=O)/C=C/C(=O)N2CCN(c3ccc(N4C[C@H](CNC(C)=O)OC4=O)cc3F)CC2)cc1`, the minimal inhibitory concentration (MIC) was 1 µg/mL (≈ 1.91 µM) in the experiment with Enterococcus faecalis [1]; 1 µg/mL (≈ 1.91 µM) against Staphylococcus aureus [2]; 0.5 µg/mL (≈ 0.953 µM) in the experiment on Staphylococcus aureus [3]; at most 0.12 µg/mL in the experiment on Streptococcus pyogenes; 0.25 µg/mL (≈ 0.477 µM) in experiment [4]; 0.5 µg/mL (≈ 0.953 µM) in the experiment on Staphylococcus aureus [5]. The MIC against Staphylococcus aureus [6] is over 16 µg/mL; in the experiment with Bacillus pumilus, 0.5 µg/mL (≈ 0.953 µM); against Streptococcus pneumoniae, 2 µg/mL (≈ 3.81 µM); against Staphylococcus aureus [7] it was at most 0.12 µg/mL; in the experiment on Staphylococcus aureus [8], 0.25 µg/mL (≈ 0.477 µM); in the experiment on Enterococcus faecalis [9] it was 0.5 µg/mL (≈ 0.953 µM). The compound further yielded an MIC with Enterococcus faecalis [10] of 2 µg/mL (≈ 3.81 µM).

Turning to `CC(=O)NC[C@H]1CN(c2ccc(N3CCN(C(=O)/C=C/C(=O)c4cccc5ccccc45)CC3)c(F)c2)C(=O)O1`, the MIC against Enterococcus faecalis [1] was found to be 1 µg/mL (≈ 1.84 µM); in the experiment on Staphylococcus aureus [2], 8 µg/mL (≈ 14.7 µM); in the experiment with Staphylococcus aureus [3] it was 4 µg/mL (≈ 7.35 µM); in the experiment with Streptococcus pyogenes, 0.5 µg/mL (≈ 0.918 µM); in experiment [4] it was 2 µg/mL (≈ 3.67 µM); in the experiment on Staphylococcus aureus [5], 2 µg/mL (≈ 3.67 µM). In addition, the MIC against Staphylococcus aureus [6] is over 16 µg/mL; in the experiment with Bacillus pumilus it was 1 µg/mL (≈ 1.84 µM); in the experiment on Streptococcus pneumoniae it was 2 µg/mL (≈ 3.67 µM); in the experiment with Staphylococcus aureus [7] it was 4 µg/mL (≈ 7.35 µM); with Staphylococcus aureus [8], 2 µg/mL (≈ 3.67 µM); in the experiment with Enterococcus faecalis [9], 0.5 µg/mL (≈ 0.918 µM). In the experiment with Enterococcus faecalis [10], the minimum inhibitory concentration (MIC) was 8 µg/mL (≈ 14.7 µM).

Take `COc1ccc(C(=O)/C=C/C(=O)N2CCN(c3ccc(N4C[C@H](C/N=C(/C)S)OC4=O)cc3F)CC2)cc1`: the MIC was 1 µg/mL (≈ 1.85 µM) in the experiment with Enterococcus faecalis [1]; 0.5 µg/mL (≈ 0.925 µM) against Staphylococcus aureus [2]; at most 0.12 µg/mL against Staphylococcus aureus [3]; 0.25 µg/mL (≈ 0.462 µM) against Streptococcus pyogenes; 0.12 µg/mL (≈ 0.222 µM) in experiment [4]; 0.25 µg/mL (≈ 0.462 µM) in the experiment with Staphylococcus aureus [5]. The MIC was over 16 µg/mL against Staphylococcus aureus [6]; 0.5 µg/mL (≈ 0.925 µM) against Bacillus pumilus; 1 µg/mL (≈ 1.85 µM) against Streptococcus pneumoniae; 0.25 µg/mL (≈ 0.462 µM) against Staphylococcus aureus [7]; at most 0.12 µg/mL against Staphylococcus aureus [8]; 0.25 µg/mL (≈ 0.462 µM) in the experiment with Enterococcus faecalis [9].

For the compound `CC(=O)NC[C@H]1CN(c2ccc(N3CCN(C(=O)/C=C/c4ccccc4)CC3)c(F)c2)C(=O)O1`, the MIC in the experiment with Enterococcus faecalis [1] turned out to be 0.5 µg/mL (≈ 1.07 µM); against Staphylococcus aureus [2], 1 µg/mL (≈ 2.14 µM); in the experiment on Staphylococcus aureus [3] it was 2 µg/mL (≈ 4.29 µM); against Streptococcus pyogenes, 1 µg/mL (≈ 2.14 µM); in [4] it was 1 µg/mL (≈ 2.14 µM); in the experiment on Staphylococcus aureus [5] it was 1 µg/mL (≈ 2.14 µM). Moreover, the MIC in the experiment with Staphylococcus aureus [6] is over 16 µg/mL; in the experiment on Bacillus pumilus it was 0.5 µg/mL (≈ 1.07 µM); in the experiment on Streptococcus pneumoniae, 0.5 µg/mL (≈ 1.07 µM); in the experiment on Staphylococcus aureus [7], 2 µg/mL (≈ 4.29 µM); against Staphylococcus aureus [8] it was 2 µg/mL (≈ 4.29 µM); with Enterococcus faecalis [9], 1 µg/mL (≈ 2.14 µM). In addition, inhibition of growth with Enterococcus faecalis [10] (MIC) required 0.5 µg/mL (≈ 1.07 µM).

For the compound `CC(=O)/C=C/C(=O)N1CCN(c2ccc(N3C[C@H](CNC(C)=O)OC3=O)cc2F)CC1`, the minimal inhibitory concentration (MIC) against Enterococcus faecalis [1] was 4 µg/mL (≈ 9.25 µM); in the experiment on Staphylococcus aureus [2], 1 µg/mL (≈ 2.31 µM); against Staphylococcus aureus [3], 1 µg/mL (≈ 2.31 µM); in experiment [4], 0.25 µg/mL (≈ 0.578 µM); against Staphylococcus aureus [5] it was 0.25 µg/mL (≈ 0.578 µM); in the experiment with Staphylococcus aureus [6], over 16 µg/mL. The MIC in the experiment on Bacillus pumilus stood at 0.5 µg/mL (≈ 1.16 µM); in the experiment on Streptococcus pneumoniae, 0.5 µg/mL (≈ 1.16 µM); in the experiment with Staphylococcus aureus [7], 1 µg/mL (≈ 2.31 µM); against Enterococcus faecalis [9] it was 1 µg/mL (≈ 2.31 µM); in the experiment on Enterococcus faecalis [10] it was 2 µg/mL (≈ 4.62 µM).
